Reference: patent US20200377568A1, “Novel IL-4-/IL-13-derived peptide compounds for the treatment or prevention of neurodegenerative or neuroinflammatory diseases” (Universitätsmedizin der Johannes Gutenberg-Universität Mainz, priority 2018, published 2020)
“Also recorded” adds a separate entry of the source.

Legend:
[1] = system: experimental autoimmune encephalomyelitis (EAE) mice; assay: EAE clinical score, treatment during the chronic phase; format: in vivo, mouse; conditions: chronic phase of EAE, vs PBS
Method: To test whether Link4 has similar effects to IL-4 in vivo, two pilot experiments were performed. In the first experiment (FIG. 3A), B16 mice were subjected to EAE and treated with IL-4, Link4, Ph8 and PBS (n=6-7 animals per group) via lumbar intrathecal injection directly into the cerebrospinal fluid (CSF) every other day for 14 days, in the chronic phase of the disease starting from day 5 after the first disease peak (grey bar). […] For better clinical translation, the treatment was then switched to nasal treatment with IL-4 and Link4 (FIG. 3B; 2 pooled experiments, n=15-16 per group). Nasally applied treatments can enter the brain through the cribriform plate, where olfactory nerve fibers cross through the bone, resulting in a connection between the roof of the nasal cavity and the brain (C. F. Xiao, F. J. Davis, B. C. Chauhan, K. L. Viola, P. N. Lacor, P. T. Velasco, W. L. Klein, and N. B. Chauhan, Brain transit and ameliorative effects of intranasally delivered anti-amyloid-beta oligomer antibody in 5XFAD mice. J Alzheimers Dis 35, 777-788 (2013)). Again, both IL-4 and Link4 treatments were beneficial.
For active EAE, female 9-10-weeks-old C57BI6 mice were immunized as previously described (M. Paterka, J. O. Voss, J. Werr, E. Reuter, S. Franck, T. Leuenberger, J. Herz, H. Radbruch, T. Bopp, V. Siffrin, and F. Zipp, Dendritic cells tip the balance towards induction of regulatory T cells upon priming in experimental autoimmune encephalomyelitis. J Autoimmun 67, 108-114 (2017)) by subcutaneous injection of 200 μg myelin oligodendrocyte […] 35-55 (MOG35-55) mixed with complete Freund adjuvant (CFA). Following the MOG35-55 immunization 400 ng pertussis toxin (PTX) was administered intraperitoneally at the day of immunizaton and after 24 h. Clinical signs were scored using the following parameters:
Treatment with rIL-4 (1 μg, Peprotech), Ph8 (1 μg, custom synthesized, Schafer N), Link4 (1 μg, custom synthesized, Schafer N) or vehicle (PBS) was performed during the chronic phase of the disease models by lumbar intrathecal injection (R. Lu and A. Schmidtko, Direct intrathecal drug delivery in mice for detecting in vivo effects of cGMP on pain processing. Methods Mol Biol 1020, 215-221 (2013)) or nasal application of IL-4 and Link4 was performed according to published procedures (C. F. Xiao, F. J. Davis, B. C. Chauhan, K. L. Viola, P. N. Lacor, P. T. Velasco, W. L. Klein, and N. B. Chauhan, Brain transit and ameliorative effects of intranasally delivered anti-amyloid-beta oligomer antibody in SXFAD mice. J Alzheimers Dis 35, 777-788 (2013)). Mice were pre-trained to avoid stress and held at a 45 degree angle to apply IL-4 solution (1 μg, Peprotech) to the nostrils using a pipette tip.

[2] = system: immune cells isolated from spleen; assay: FACS of immune cells from spleen of EAE mice after nasal treatment; format: in vivo, mouse; conditions: intranasal treatment of EAE mice
Method: A-B: Effects of incubation with IL-4 and different concentrations of Link4 and Link13 on the differentiation of A: CD11b^+ bone marrow-derived macrophages (BMDMs) into F80^+CD206^+ cells, and B: CD4^+ T cells into Gata3^+ cells. C-D: FACS results for different populations of T cells and CD11b^+MHCII^+ monocytes/macrophages/microglia of immune cells isolated from C: spleen and D: central nervous system (CNS) of EAE mice treated with PBS, IL-4 or Link4.
Subsequently, the effects of IL-4 and Link4 on immune cells were analysed when applied intranasally, similarly as in FIG. 3B. Since nasally applied treatments can enter the periphery (lungs, blood stream) it was of utmost importance to check whether the substances affected the lymphocyte populations in the spleen. A reduction was found of CD8^+ cytotoxic T-cells for Link4, whereas all CD4^+ T helper cell types were unchanged. The CD11 b+MHCII+ population of monocytes/macrophages was also not changed.
CNS and spleens were removed from EAE mice treated with nasal IL-4, Link4 or PBS at d35 and immune cells were isolated as previously described (M. Paterka, J. O. Voss, J. Werr, E. Reuter, S. Franck, T. Leuenberger, J. Herz, H. Radbruch, T. Bopp, V. Siffrin, and F. Zipp, Dendritic cells tip the balance towards induction of regulatory T cells upon priming in experimental autoimmune encephalomyelitis. J Autoimmun 67, 108-114 (2017)). For in vitro stimulation of T cells, anti-CD3 (145-2C11) and anti-CD28 (37.51) were used. The following antibodies were used for flow cytometry with the BD FACSCanto II (BD Bioscience): anti-CD4 PEcγ7 (RM4-5), anti-CD8 FITC (53-6.7), anti-CD3APC (145-2c11), anti-CD11 b bio (M1/70), anti-MHCII PE (AF6-120.1), anti-CD11 b V450 (HL311B), anti-CD45 AF605 (30-F11), anti-GM-CSF PE (MP1-22E9), anti-IL17 APC (eBio17B7), anti-TNFα AF700 (MP6-XT22), anti-IFN-γV450 (XMG1.2), anti-GATA-3 PE (TWAZ), anti-FOXP3 PEcy7(FZK-16s), anti-IL-10 APC (JESS-16E3), anti-CD4 V450 (RM4-5). All antibodies were purchased from eBioscience or Biolegend.

In the case of “RARSEIIGIGSKSIMQMDY (listed as Mus musculus) [Link4]”, the clinical score ([1]; lumbar intrathecal injection, 1 μg every other day for 14 days) is reported as “significant improvement in the clinical score; also recorded: significant amelioration of the clinical score”, the clinical score ([1]; lumbar intrathecal injection, 1 μg every other day for 14 days, listed as mouse Link4) is reported as “reducing disease symptoms” and the clinical score ([1]; nasal application) is reported as “significant improvement in the clinical score; also recorded: beneficial”. The “CD4+ T helper cell types” value [2] was “unchanged”, the “CD8+ cytotoxic T-cells” value [2] was “reduction” and the “CD11b+MHCII+ population of monocytes/macrophages” value [2] was “not changed”.
